Laboratory results published in PubChem BioAssay AID179 (DTP/NCI, 2004).
Active and inactive are the calls of the source.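 How the source made its calls: active means compounds giving half or more protection of infected cells from virus-caused growth loss, again on retest; inactive means the rest.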 Where a SMILES comes first, the peptide text is derived from it. [ ]: non-standard residue; d: D form. The star is where a group is joined. pGlu = O=C1CC[CH](C(=O)O)N1; Nle = CCCC[CH](N)C(=O)O; Cbz = O=C(OCc1ccccc1)*; OBn = c1ccc(CO*)cc1

Tested on: CEM cells HIV-1 protection, formazan growth assay
Assay: NCI AIDS Antiviral Assay
Conditions: for IC50: measured here: growth of uninfected CEM cells
Outline: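 Protection of CEM cells against HIV-1 was scored from cell growth (soluble formazan) across five concentrations, with parallel uninfected cells. Lack of protection may reflect toxicity.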

| Structure (SMILES) | EC50 [µM] | IC50 [µM] | outcome |
| --- | --- | --- | --- |
| C=C(C)C1CC2=C(C(=O)OC)C=C(O2)C(C(=C)C)[C@@H]2OC(=O)/C(=C\C1O)[C@H]2N(C)C (some centres undefined) | > 20 | 5.01 | – |
| COC(CN(C(=O)c1ccccc1)C1CCC2(SCCS2)c2[nH]c3ccccc3c21)OC (centres undefined) | > 200 | 14.5 | – |
| CC(C)(C)[Si](C)(C)OCCc1ccccc1C1CC2(S(=O)(=O)c3ccccc3)ON1CC2S(=O)(=O)c1ccccc1 (centres undefined) | > 16.2 | > 16.2 | – |
| CC1=CC2Cc3ccoc3C(C)(C)C2CC1 (centres undefined) | – | – | inactive |
| COC(=O)CSSCc1ccc([N+](=O)[O-])cc1 | > 200 | 3.47 | – |
| CC1=N[C@@](C)(C2CC3C=CC2C3=O)COC1=O (some centres undefined) | > 288 | > 288 | – |
| Oc1[nH]c2ccccc2c1N=NC(=S)N1CCCC1 | > 200 | 1.55 | – |
| CCc1ccccc1NC(=O)C(=O)C(C(=O)c1ccc(OC)cc1)c1ccc(OC)cc1 (centres undefined) | – | – | inactive |
| O=C(O)CCC(=O)NNC(=O)CCC(=O)O | > 155 | > 155 | – |
| N#Cc1c(=N)cc2c3ccccc3oc3c(C#N)c(N)[nH]c1c32 | > 200 | 195 | – |
| COc1cccc(C2c3cc4c(cc3OC(N3CCCC3)C2C)OCO4)c1OC (centres undefined) | > 200 | 1.41 | – |
| CC(NC(=O)C1CCC(=O)N1)C(=O)N1CCCC1C(N)=O (stereo not drawn) ([pGlu]-Ala-Pro-NH2; configuration not given here) | > 200 | > 200 | – |
| COC1(C)C(=O)NC(=O)N(C2C=CC(CO)O2)C1O (centres undefined) | 7.41 | 170 | – |
| BrC1(Br)C2/C=C\CCCCC21 (centres undefined) | – | – | inactive |
| COc1cc(C2C(Cl)C(=O)N2NC(=O)c2ccc(NC(C)=O)cc2)ccc1O (centres undefined) | > 200 | > 200 | – |
| O=C(CCCC[n+]1ccccc1)Sc1ccccc1C(=O)NCc1ccc2c(c1)OCO2 | > 200 | 3.02 | – |
| c1scc2c1COCCOCCOCCOCc1cscc1COCCOCCOCCOC2 | > 347 | > 347 | – |
| C/C(=C1/N=C(c2cc([N+](=O)[O-])ccc2Cl)N(C2=CC=C(Cl)CC2)C1=O)c1cc2ccccc2oc1=O | > 19.1 | > 19.1 | – |
| COC/C=C\[C@]1(O)CCCC[C@@H]1CC(OC)OC | > 200 | 30.9 | – |
| CC(=O)OCC1Cn2c(c(-c3ccccc3)c(=O)[nH]c2=S)O1 (centres undefined) | > 603 | > 603 | – |
| COC(=O)c1cc(C#N)[nH]c1-c1ccc(Br)s1 | > 200 | 4.37 | – |
| CCN(CC)CC(C(=O)Nc1c(C)cccc1C)/C(C)=N/NC(N)=S (centres undefined) | > 37.2 | > 37.2 | – |
| CCCCCCCCCCCCCCCCCC1=Nc2ccccc2NC(=O)C1 | > 100 | > 100 | – |
| CC1CC2C3CCC4=CC(=O)C=CC4(C)C3(F)C(O)CC2(C)C1(O)C(=O)COP(=O)(O)O (centres undefined) | – | – | inactive |

| Structure (SMILES) | EC50 [µM] | IC50 [µM] | outcome |
| --- | --- | --- | --- |
| CC(=O)OCC1(CNc2nc(N)ncc2C#N)CC(CCc2ccccc2)C1 (centres undefined) | > 200 | 17.4 | – |
| COc1ccc(OC)c2[nH]c(CCc3nc4c(OC)ccc(OC)c4[nH]3)nc12 | – | – | inactive |
| CC(O)CCC(=O)c1ccoc1 (centres undefined) | > 1480 | > 1480 | – |
| COc1cc2c(cc1OC)NC(=O)CC(=O)N2 | > 200 | > 200 | – |
| N#C/C(=C\c1cc2ccccc2c2ccccc12)c1ccccc1 | > 12.3 | 6.46 | – |
| Cc1cc(NS(=O)(=O)c2ccc(NC(NC(=O)C(C(F)(F)F)C(F)(F)F)(C(F)(F)F)C(F)(F)F)cc2)no1 | > 200 | > 200 | – |
| C=C1CCOC2(C(O)C(C)(O)CO)NC(=O)C1(O)NC2=O (centres undefined) | – | – | inactive |
| COc1cc(-c2nc(N)c(C#N)c3c2CCS(=O)(=O)c2ccc(C)cc2-3)cc(OC)c1OC | > 200 | > 200 | – |
| Cc1cccc(C(C)(C)C)c1NC(=O)CC1C(=O)Nc2ccccc2S1=O (centres undefined) | – | – | inactive |
| CC(O)CCC(=O)NCCS(=O)(=O)O (centres undefined) | > 200 | > 200 | – |
| CCCCC(NC(=O)C1CCCN1C(=O)OCc1ccccc1)C(=O)OCc1ccccc1 (stereo not drawn) (Cbz-Pro-[Nle]-OBn; configuration not given here) | > 41.7 | > 41.7 | – |
| NC(=O)c1cc(/C=C/c2ccccc2)on1 | > 200 | > 200 | – |
| CC(C)=CCC1=C(O)c2ccccc2C(=O)C1=O | – | – | inactive |
| N#CC(C#N)=CNC(=S)c1ccncc1 | > 200 | 166 | – |
| CCCCC(C(=O)CCC(=O)Nc1ccc(Cl)c(Cl)c1)C(=O)C(C)C (centres undefined) | > 324 | 275 | – |
| NC1=NC(=O)C(CC(=O)Nc2ccc(Cl)cc2Cl)S1 (centres undefined) | > 794 | 372 | – |
| Cc1cc(C)c2c(=N)c3ccccc3n(CCCCCCO)c2n1 | > 200 | 1.38 | – |
| CC1(C)CNC[C@](C)(OCc2ccccc2)N1 | > 200 | > 200 | – |
| C[N+]12CN3CN(CP(C3)C1)C2 | > 832 | – | – |
| CCOC(=O)[C@H]1C[C@H]2O[C@H]2C[C@@H]1C | – | – | inactive |
| CC(=O)NC1=NC(=O)/C(=C/c2ccc(/C=C3/C(=O)N=C(NC(C)=O)N3C)cc2)N1C | > 200 | 151 | – |
| CCCCCCCCCCCC1OC[C@H]2O[C@@H](n3cc(C)c(=O)[nH]c3=O)C[C@H]2N1O (some centres undefined) | > 200 | 21.9 | – |
| COC(=O)/C(=N\NC(=S)NN)C(C(=O)C(=O)Nc1ccccc1C(N)=O)c1nc2ccccc2[nH]c1=O (centres undefined) | > 347 | > 347 | – |
